Experimental data as given in the NIST ThermoML archive (doi:10.1021/acs.jced.6b00350).
Values joined by “and” are separate entries in the source; they are usually repeats but may differ in a detail not shown here. Identical values can stand only once.

Conditions: Liquid, Hot wire method

FC(F)CC(F)(F)F [1,1,1,3,3-pentafluoropropane]
Conditions	thermal conductivity
242.09 K, 15292 kPa	0.1107 W/m/K
242.09 K, 33385 kPa	0.1154 W/m/K
242.09 K, 46702 kPa	0.1187 W/m/K
242.09 K, 46703 kPa	0.1195 W/m/K
242.1 K, 15296 kPa	0.1107 W/m/K
242.1 K, 21026 kPa	0.1124 W/m/K
242.1 K, 21045 kPa	0.1126 W/m/K
242.1 K, 33384 kPa	0.1155 W/m/K
242.1 K, 53712 kPa	0.1203 W/m/K
242.11 K, 9885 kPa	0.1091 W/m/K
242.11 K, 9889 kPa	0.1086 W/m/K
242.11 K, 26987 kPa	0.1139 W/m/K
242.11 K, 39778 kPa	0.1171 W/m/K
242.12 K, 26965 kPa	0.1139 W/m/K
242.12 K, 39775 kPa	0.1171 W/m/K
242.12 K, 53701 kPa	0.1203 W/m/K
242.12 K, 61286 kPa	0.1221 W/m/K
242.13 K, 61278 kPa	0.1219 W/m/K
242.14 K, 68636 kPa	0.1235 W/m/K
242.14 K, 68676 kPa	0.1235 W/m/K
242.19 K, 312 kPa	0.1058 W/m/K and 0.1064 W/m/K
242.19 K, 4998 kPa	0.1075 W/m/K
242.19 K, 5009 kPa	0.1078 W/m/K
242.51 K, 46692 kPa	0.1189 W/m/K
242.52 K, 46700 kPa	0.1191 W/m/K
242.54 K, 33390 kPa	0.1155 W/m/K
242.54 K, 33403 kPa	0.1154 W/m/K
242.54 K, 53700 kPa	0.1204 W/m/K
242.54 K, 53711 kPa	0.1205 W/m/K
242.54 K, 61277 kPa	0.1221 W/m/K
242.55 K, 15291 kPa	0.1107 W/m/K
242.55 K, 21035 kPa	0.1123 W/m/K
242.55 K, 21038 kPa	0.1121 W/m/K
242.55 K, 39775 kPa	0.117 W/m/K
242.55 K, 39776 kPa	0.1173 W/m/K
242.55 K, 61245 kPa	0.122 W/m/K
242.55 K, 68688 kPa	0.1238 W/m/K
242.56 K, 26980 kPa	0.1136 W/m/K
242.56 K, 26983 kPa	0.114 W/m/K
242.56 K, 68673 kPa	0.1236 W/m/K
242.57 K, 9883 kPa	0.109 W/m/K
242.58 K, 9889 kPa	0.1092 W/m/K
242.65 K, 5012 kPa	0.1074 W/m/K
242.66 K, 307 kPa	0.1056 W/m/K
242.66 K, 5012 kPa	0.1074 W/m/K
242.67 K, 311 kPa	0.1059 W/m/K
242.99 K, 46699 kPa	0.1186 W/m/K
242.99 K, 46703 kPa	0.1187 W/m/K
242.99 K, 53703 kPa	0.1204 W/m/K
242.99 K, 53705 kPa	0.1205 W/m/K
243 K, 61280 kPa	0.122 W/m/K
243.01 K, 33387 kPa	0.1153 W/m/K
243.01 K, 61272 kPa	0.122 W/m/K
243.01 K, 68624 kPa	0.1235 W/m/K
243.01 K, 68665 kPa	0.1235 W/m/K
243.02 K, 33391 kPa	0.1157 W/m/K
243.02 K, 39783 kPa	0.117 W/m/K
243.03 K, 39791 kPa	0.1173 W/m/K
243.04 K, 15285 kPa	0.1108 W/m/K
243.04 K, 21046 kPa	0.1119 W/m/K
243.04 K, 26979 kPa	0.1139 W/m/K
243.05 K, 21037 kPa	0.1122 W/m/K
243.05 K, 26975 kPa	0.1137 W/m/K
243.06 K, 15300 kPa	0.1105 W/m/K
243.07 K, 9881 kPa	0.1091 W/m/K
243.07 K, 9885 kPa	0.1094 W/m/K
243.16 K, 5024 kPa	0.1074 W/m/K
243.17 K, 305 kPa	0.1059 W/m/K
243.17 K, 5015 kPa	0.1075 W/m/K
243.18 K, 306 kPa	0.1061 W/m/K
261.13 K, 36952 kPa	0.1131 W/m/K
261.13 K, 36968 kPa	0.1135 W/m/K
261.17 K, 4289 kPa	0.1031 W/m/K
261.17 K, 4298 kPa	0.1027 W/m/K
261.17 K, 8849 kPa	0.103 W/m/K
261.19 K, 14126 kPa	0.1062 W/m/K
261.2 K, 14118 kPa	0.106 W/m/K
261.21 K, 254 kPa	0.1005 W/m/K
261.21 K, 260 kPa	0.1005 W/m/K
261.21 K, 25237 kPa	0.1087 W/m/K
261.22 K, 25223 kPa	0.1081 W/m/K
261.23 K, 31202 kPa	0.1113 W/m/K
261.23 K, 31204 kPa	0.1116 W/m/K
261.52 K, 43978 kPa	0.1147 W/m/K
261.55 K, 51260 kPa	0.1154 W/m/K
261.55 K, 51262 kPa	0.1153 W/m/K
261.56 K, 8838 kPa	0.1026 W/m/K
261.57 K, 8847 kPa	0.1029 W/m/K
261.57 K, 58812 kPa	0.1174 W/m/K
261.58 K, 14132 kPa	0.1051 W/m/K
261.58 K, 58797 kPa	0.1178 W/m/K
261.6 K, 25212 kPa	0.1084 W/m/K
261.6 K, 31216 kPa	0.1112 W/m/K
261.61 K, 256 kPa	0.09949 W/m/K
261.61 K, 263 kPa	0.09978 W/m/K
261.61 K, 19564 kPa	0.1066 W/m/K
261.61 K, 68826 kPa	0.1202 W/m/K
261.61 K, 68837 kPa	0.1206 W/m/K
261.62 K, 19569 kPa	0.107 W/m/K
261.63 K, 68933 kPa	0.1198 W/m/K
261.64 K, 68930 kPa	0.1197 W/m/K
261.9 K, 36964 kPa	0.1125 W/m/K
261.92 K, 43962 kPa	0.1136 W/m/K
261.93 K, 43919 kPa	0.1146 W/m/K
261.94 K, 51257 kPa	0.1157 W/m/K
261.95 K, 51262 kPa	0.1157 W/m/K
261.96 K, 58819 kPa	0.1174 W/m/K
261.96 K, 58829 kPa	0.1179 W/m/K
261.99 K, 68802 kPa	0.1199 W/m/K
261.99 K, 68824 kPa	0.1198 W/m/K
262 K, 8855 kPa	0.1037 W/m/K
262 K, 8858 kPa	0.1032 W/m/K
262 K, 14134 kPa	0.105 W/m/K
262.01 K, 4294 kPa	0.1017 W/m/K
262.01 K, 4301 kPa	0.1014 W/m/K
262.01 K, 14121 kPa	0.1049 W/m/K
262.01 K, 25254 kPa	0.1088 W/m/K
262.01 K, 25264 kPa	0.1087 W/m/K
262.01 K, 31199 kPa	0.1102 W/m/K and 0.1104 W/m/K
262.01 K, 68921 kPa	0.1199 W/m/K
262.02 K, 68914 kPa	0.1199 W/m/K
262.04 K, 19538 kPa	0.1069 W/m/K
262.04 K, 19563 kPa	0.1063 W/m/K
262.06 K, 260 kPa	0.1002 W/m/K
262.06 K, 263 kPa	0.1001 W/m/K
262.33 K, 36929 kPa	0.1119 W/m/K
262.35 K, 36937 kPa	0.1119 W/m/K
262.36 K, 43961 kPa	0.1135 W/m/K
262.36 K, 43965 kPa	0.1138 W/m/K
262.37 K, 51242 kPa	0.1157 W/m/K
262.38 K, 51253 kPa	0.1155 W/m/K
262.39 K, 58814 kPa	0.1181 W/m/K
262.39 K, 58816 kPa	0.1176 W/m/K
262.4 K, 68835 kPa	0.1199 W/m/K
262.41 K, 68836 kPa	0.1198 W/m/K
262.43 K, 68875 kPa	0.1199 W/m/K
262.43 K, 68907 kPa	0.1196 W/m/K
262.46 K, 8826 kPa	0.1033 W/m/K
262.46 K, 25272 kPa	0.1083 W/m/K
